Test results: patent US5268374A, “Non-peptide renin inhibitors” (Abbott Laboratories, priority 1991, dated 1993)

target: T1, human renal renin (Homo sapiens, UniProt P00797); assay: Inhibition of human renal renin in vitro (angiotensin I formation by radioimmunoassay); format: biochemical; conditions: not given
T1 construct: from tissue; host or cells: human kidney (read from the word 'renal'; no preparation is printed)
T1 sequence (P00797 67-406): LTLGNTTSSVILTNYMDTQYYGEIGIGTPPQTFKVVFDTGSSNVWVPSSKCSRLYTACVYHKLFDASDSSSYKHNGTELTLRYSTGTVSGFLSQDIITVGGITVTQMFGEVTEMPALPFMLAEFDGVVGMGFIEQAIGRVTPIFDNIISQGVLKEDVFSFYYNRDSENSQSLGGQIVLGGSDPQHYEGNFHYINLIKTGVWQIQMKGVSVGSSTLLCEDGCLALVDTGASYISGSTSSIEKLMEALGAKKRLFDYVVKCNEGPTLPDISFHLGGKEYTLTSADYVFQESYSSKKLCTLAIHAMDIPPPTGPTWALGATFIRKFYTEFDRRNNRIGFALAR

Row | SMILES | IC50 [nM]
1 | CCCC[C@H](N[C@@H](Cc1ccccc1)C(=O)N1CCC(OCOC)CC1)C(=O)N[C@@H](CC1CCCCC1)[C@@H](O)C[C@H](C(=O)NCCCn1ccnc1)C(C)C [Example 119] | 3

same assay, conditions: human renal renin, 37 degrees C, pH 6.0; read-out: IC50

Row | SMILES | IC50 [nM]
2 | CCCC[C@H](O[C@@H](Cc1ccccc1)C(=O)N1CCC(OCOC)CC1)C(=O)N[C@@H](CC(C)C)[C@@H](O)CC(=O)NCC(C)CC (some centres unmarked) [Example 180] | 3.8
3 | CC(C)C[C@H](O)[C@H](O)[C@H](CC1CCCCC1)NC(=O)[C@H](C)O[C@@H](Cc1ccccc1)C(=O)N1CCC1 [Example 87, 2(S)-(1(S)-(N-Azetidinylcarbonyl)-2-phenylethoxy)propionic acid Amide of 2(S)-Amino-1-cyclohexyl-3(R),4(S)-dihydroxy-6-methylheptane] | 5.5
4 | CCCC[C@H](N[C@@H](Cc1ccccc1)C(=O)N1CCOCC1)C(=O)N[C@@H](CC1CCCCC1)[C@@H](O)[C@@H](O)CC(C)C [Example 69, N-(1(S)-(4-Morpholinylcarbonyl)-2-phenylethyl)-L-norleucyl Amide of 2(S)-Amino-1-cyclohexyl-3(R),4(S)-dihydroxy-6-methylheptane] | 9
5 | CCCC[C@H](O[C@@H](Cc1ccccc1)C(=O)N1CCC(OCOC)CC1)C(=O)N[C@@H](CC1CCCCC1)[C@@H](O)C(F)(F)[C@H](O)C(C)C [Example 179] | 4.6
6 | CCCC[C@H](O[C@@H](Cc1ccccc1)C(=O)N1CCC(OCOC)CC1)C(=O)N[C@@H](CC1CCCCC1)[C@@H](O)[C@@H]1CN(CC)C(=O)O1 [Example 108, 2(S)-(1(S)-(4-(Methoxymethoxy)piperidin-1-yl-carbonyl)-2-phenylethoxy)hexanoic acid Amide of (2's,1'R,5S)-3-Ethyl-5-(1'-hydroxy-2'-amino-3'-cyclohexylpropyl)oxazolidin-2-one] | 0.87
7 | CCCCC(=O)N[C@@H](C[C@H](O)[C@H](CC1CCCCC1)NC(=O)[C@H](CCCC)O[C@@H](Cc1ccccc1)C(=O)N1CCC(OCOC)CC1)C(C)C [Example 132, 2(S)-1(S)-4-(Methoxymethoxy)piperidin-1-yl)carbonyl-2-phenyl)ethoxyhexanoicacid amide of 2(S)-amino-1-cyclohexyl-5(S)-((2-(pentanoyl)amino-3(S)-hydroxy-6-methylheptane] | 3.2
8 | CCCCNC(=O)[C@@H](C[C@H](O)[C@H](CC1CCCCC1)NC(=O)[C@H](C)O[C@@H](Cc1ccccc1)C(=O)N1CCOCC1)C(C)C [Example 91, 2(S)-(1(S)-(4-Morpholinylcarbonyl)-2-phenylethoxy)propionic acid Amide of 2(S)-Amino-1-cyclohexyl-3(S)-hydroxy-5(S)-n-butylcarbamoyl-6-methylheptane] | 3.9
9 | CCCC[C@H](O[C@@H](Cc1ccccc1)C(=O)N1CCC(OCOC)CC1)C(=O)N[C@@H](CC1CCCCC1)[C@@H](O)[C@@H](O)CC(C)C [Example 93, 2(S)-(1(S)-(4-(Methoxymethoxy)piperidin-1-yl-carbonyl)-2-phenylethoxy)hexanoic acid Amide of 2(S)-Amino-1-cyclohexyl-3(R),4(S)-dihydroxy-6-methylheptane] | 1.1
10 | CCCC[C@H](O[C@@H](Cc1ccccc1)C(=O)N1CCC(OCOC)CC1)C(=O)N[C@@H](CC1CCCCC1)[C@@H](O)[C@@H](O)CN(C)OC [Example 139] | 2.7
11 | CCCC[C@H](O[C@@H](Cc1ccccc1)C(=O)N1CCC(OCOC)CC1)C(=O)N[C@@H](CC1CCCCC1)[C@@H](O)C[C@H](C(=O)NCCCN(C)C)C(C)C [Example 117, 2(S)-(1(S)-(4-(Methoxymethoxy)piperidin-1-yl)carbonyl-2-phenyl)ethoxyhexanoic acid amide of 3-(dimethylamino)propyl 5(S)-amino-6-cyclohexyl-4(S)-hydroxy-2(S)-isopropylhexanamide] | 2.5
12 | CCCC[C@H](O[C@@H](Cc1ccccc1)C(=O)N1CCC(OCOC)CC1)C(=O)N[C@@H](CC1CCCCC1)[C@@H](O)C[C@H](NC(=O)OCCN1CCOCC1)C(C)C [Example 130] | 1.4
13 | CCCC[C@H](O[C@@H](Cc1ccccc1)C(=O)N1CCC(OCOC)CC1)C(=O)N[C@@H](CC1CCCCC1)[C@@H](O)C[C@H](C(=O)NCCC[N+](C)(C)[O-])C(C)C [Example 136] | 1.4
14 | CCCC[C@H](N[C@@H](Cc1ccccc1)C(=O)N1CCC(OCOC)CC1)C(=O)N[C@@H](CC1CCCCC1)[C@H](O)CC(C(=O)N[C@H](C(=O)NCc1ccccn1)[C@@H](C)CC)C(C)C (some centres unmarked) [Example 181] | 1.8
15 | COCOC1CCN(C(=O)[C@H](Cc2ccccc2)O[C@@H](C)C(=O)N[C@@H](CC2CCCCC2)[C@@H](O)[C@@H](O)CC(C)C)CC1 [Example 94, 2(S)-(1(S)-(4-(Methoxymethoxy)piperidinyl-1-yl-carbonyl)-2-phenylethoxy)propionic acid Amide of 2(S)-Amino-1-cyclohexyl-3(R),4(S)-dihydroxy-6-methylheptane] | 1.3
16 | CC(C)C[C@H](O)[C@H](O)[C@H](CC1CCCCC1)NC(=O)[C@H](C)O[C@@H](Cc1ccccc1)C(=O)N1CCCCC1 [Example 89, 2(S)-(1(S)-(N-Piperidinylcarbonyl)-2-phenylethoxy)propionic acid Amide of 2(S)-Amino-1-cyclohexyl-3(R),4(S)-dihydroxy-6-methylheptane] | 15
17 | CC(C)C[C@H](O)[C@H](O)[C@H](CC1CCCCC1)NC(=O)[C@H](C)O[C@@H](Cc1ccccc1)C(=O)N1CCCC1 [Example 88, 2(S)-(1(S)-(N-Pyrolidinylcarbonyl)-2-phenylethoxy)propionic acid Amide of 2(S)-Amino-1-cyclohexyl-3(R),4(S)-dihydroxy-6-methylheptane] | 12
18 | CCCC[C@H](O[C@@H](Cc1ccccc1)C(=O)N1CCC(OCOC)CC1)C(=O)N[C@@H](CC1CCCCC1)[C@@H](O)C[C@H](NC(=O)OCCc1ccccn1)C(C)C [Example 131] | 0.88
19 | CCCC[C@H](O[C@@H](Cc1ccccc1)C(=O)N1CCC(OCOC)CC1)C(=O)N[C@@H](CC1CCCCC1)[C@@H](O)CN(C)S(=O)(=O)NC [Example 122, 2(S)-(1(S)-(4-(Methoxymethoxy)piperidin-1-yl)carbonyl-2-phenyl)ethoxyhexanoic acid amide of (2S,3S)-3-amino-4-cyclohexyl-2-hydroxy-1-(methyl(methylsulfamoyl)amino)butane] | 2.5
20 | CCCC[C@H](O[C@@H](Cc1ccccc1)C(=O)N1CCC(OCOC)CC1)C(=O)N[C@@H](CC1CCCCC1)[C@@H](O)C[C@H](C(=O)NCCCn1ccnc1)C(C)C [Example 116, 2(S)-(1(S)-(4-(Methoxymethoxy)piperidin-1-yl)carbonyl-2-phenyl)ethoxyhexanoic acid amide of 3-(1-imidazolyl)propyl 5(S)-amino-6-cyclohexyl-4(S)-hydroxy-2(S)-isopropylhexanamide] | 1.3
21 | CCCCNC(=O)[C@@H](C[C@H](O)[C@H](CC1CCCCC1)NC(=O)[C@H](CCCC)O[C@@H](Cc1ccccc1)C(=O)N1CCC(OCOC)CC1)C(C)C [Example 96, 2(S)-(1(S)-(4-(Methoxymethoxy)piperidin-1-yl-carbonyl)-2-phenylethoxy)hexanoic acid Amide of 2(S)-Amino-1-cyclohexyl-3(S)-hydroxy-5(S)-n-butylcarbamoyl-6-methylheptane] | 1.5
22 | CCCC[C@H](O[C@@H](Cc1ccccc1)C(=O)N1CCC(OCOC)CC1)C(=O)N[C@@H](CC1CCCCC1)[C@@H](O)CN(C(C)C)S(=O)(=O)NC [Example 142, 2(S)-(1(S)-(4-(Methoxymethoxy)piperidin-1-yl)carbonyl-2-phenyl)ethoxyhexanoic acid amide of (2S,3S)-3-amino-4-cyclohexyl-2-hydroxy-1-(isopropyl(methylsulfamoyl)amino)butane] | 1.3
23 | CCCC[C@H](O[C@@H](Cc1ccccc1)C(=O)N1CCC(OCOC)CC1)C(=O)N[C@@H](CC1CCCCC1)[C@@H](O)C[C@H](NC(=O)OCCN(C)C)C(C)C [Example 129] | 2.7
